Where two headings read alike, the source gives them in different places.
Legend:
[1] = samples >20 h postdose, median (IQR)
[2] = cited from earlier work
[3] = system: hospitalized patients with COVID‐19; details: cited from earlier work
[4] = cited from earlier work; remark: listed apart in the source
[5] = imatinib N = 197 vs placebo N = 188

Row | Structure (SMILES) | Observed total imatinib plasma concentration Ctrough ([1]; COVID-19 subset 1 (model building)) | Observed total imatinib plasma concentration Ctrough ([1]; COVID-19 subset 2 (validation set)) | Drug excreted by renal excretion [2] | Drug excreted via the feces [2] | Excreted unchanged ([2]; of the excreted drug) | Bioavailability ([2]; oral) | Premature treatment stop due to gastrointestinal (GI) toxicity ([3]; CounterCOVID) | Duration of invasive mechanical ventilation compared with placebo [3, 5] | Mortality compared with placebo [3, 5] | Protein bound in blood [4] | Metabolite AUC as % of the parent AUC ([2]; formed by CYP3A4) | Activity of the metabolite ([2]; relative to imatinib)
1 | Cc1ccc(NC(=O)c2ccc(CN3CCN(C)CC3)cc2)cc1Nc1nccc(-c2cccnc2)n1 [imatinib] | 2156 (738–4179) µg/L | 1791 (928.4–3204) µg/L | 13% | 68% | 25% | almost complete | more imatinib treated patients stopped treatment prematurely | shorter | significantly lower | > 95% |  | 
2 | Cc1ccc(NC(=O)c2ccc(CN3CCNCC3)cc2)cc1Nc1nccc(-c2cccnc2)n1 [N‐desmethyl imatinib] |  |  |  |  |  |  |  |  |  |  | ~ 10% | active

Reference: PMC8646516 (CPT: Pharmacometrics & Systems Pharmacology, 2021)
